In one assay the target is T1, human TLR7 (Homo sapiens, UniProt Q9NYK1).
T1 sequence (Q9NYK1 27-1049): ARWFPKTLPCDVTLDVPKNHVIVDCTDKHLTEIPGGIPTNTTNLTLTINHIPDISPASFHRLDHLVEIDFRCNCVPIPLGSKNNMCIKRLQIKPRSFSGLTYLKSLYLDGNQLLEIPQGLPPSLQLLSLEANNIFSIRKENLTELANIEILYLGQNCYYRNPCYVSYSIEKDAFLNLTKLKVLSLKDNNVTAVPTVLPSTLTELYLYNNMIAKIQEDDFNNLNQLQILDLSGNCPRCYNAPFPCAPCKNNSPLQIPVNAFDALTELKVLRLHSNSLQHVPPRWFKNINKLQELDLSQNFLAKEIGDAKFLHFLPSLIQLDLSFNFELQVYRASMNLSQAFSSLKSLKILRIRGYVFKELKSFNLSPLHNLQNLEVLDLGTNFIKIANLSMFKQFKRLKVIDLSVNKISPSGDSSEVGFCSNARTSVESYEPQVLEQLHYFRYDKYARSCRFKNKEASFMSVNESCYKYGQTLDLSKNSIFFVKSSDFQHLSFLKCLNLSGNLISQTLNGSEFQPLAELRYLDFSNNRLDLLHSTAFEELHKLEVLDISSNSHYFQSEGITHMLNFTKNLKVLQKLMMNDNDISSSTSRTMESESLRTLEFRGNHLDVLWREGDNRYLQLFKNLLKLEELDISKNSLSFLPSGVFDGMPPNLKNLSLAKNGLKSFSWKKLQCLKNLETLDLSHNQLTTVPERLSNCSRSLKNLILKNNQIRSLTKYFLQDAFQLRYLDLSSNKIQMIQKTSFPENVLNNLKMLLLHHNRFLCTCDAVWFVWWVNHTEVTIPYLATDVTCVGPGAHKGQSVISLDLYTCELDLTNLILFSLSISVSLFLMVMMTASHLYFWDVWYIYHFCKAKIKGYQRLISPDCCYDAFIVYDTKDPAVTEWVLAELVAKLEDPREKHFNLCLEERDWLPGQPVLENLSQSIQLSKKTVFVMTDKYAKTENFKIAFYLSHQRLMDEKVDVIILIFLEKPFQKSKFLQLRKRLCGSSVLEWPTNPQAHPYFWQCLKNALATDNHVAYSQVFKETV
As to the kind of experiment: HEK-Blue hTLR7 SEAP reporter gene inhibition assay. Format: cell-based. To be noted: read-out: HEK-Blue hTLR7 IC50. The gist of the method:
(§1)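 Compounds (final 0.001–36 µM) were added 15 min before stimulation with 10 µM TLR7 agonist Gardiquimod or 10 µM TLR8 ligand for 20 h. Read-out: SEAP from NF-κB/AP-1 reporter in hTLR7 (80,000 cells/well) or hTLR8 (60,000 cells/well) HEK-Blue cells, via Quanti-Blue; IC50 derived.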

Another assay deals with T2, human TLR8 (Homo sapiens, UniProt Q9NR97).
T2 construct: expressed in transfected cells
T2 sequence (Q9NR97 27-1041): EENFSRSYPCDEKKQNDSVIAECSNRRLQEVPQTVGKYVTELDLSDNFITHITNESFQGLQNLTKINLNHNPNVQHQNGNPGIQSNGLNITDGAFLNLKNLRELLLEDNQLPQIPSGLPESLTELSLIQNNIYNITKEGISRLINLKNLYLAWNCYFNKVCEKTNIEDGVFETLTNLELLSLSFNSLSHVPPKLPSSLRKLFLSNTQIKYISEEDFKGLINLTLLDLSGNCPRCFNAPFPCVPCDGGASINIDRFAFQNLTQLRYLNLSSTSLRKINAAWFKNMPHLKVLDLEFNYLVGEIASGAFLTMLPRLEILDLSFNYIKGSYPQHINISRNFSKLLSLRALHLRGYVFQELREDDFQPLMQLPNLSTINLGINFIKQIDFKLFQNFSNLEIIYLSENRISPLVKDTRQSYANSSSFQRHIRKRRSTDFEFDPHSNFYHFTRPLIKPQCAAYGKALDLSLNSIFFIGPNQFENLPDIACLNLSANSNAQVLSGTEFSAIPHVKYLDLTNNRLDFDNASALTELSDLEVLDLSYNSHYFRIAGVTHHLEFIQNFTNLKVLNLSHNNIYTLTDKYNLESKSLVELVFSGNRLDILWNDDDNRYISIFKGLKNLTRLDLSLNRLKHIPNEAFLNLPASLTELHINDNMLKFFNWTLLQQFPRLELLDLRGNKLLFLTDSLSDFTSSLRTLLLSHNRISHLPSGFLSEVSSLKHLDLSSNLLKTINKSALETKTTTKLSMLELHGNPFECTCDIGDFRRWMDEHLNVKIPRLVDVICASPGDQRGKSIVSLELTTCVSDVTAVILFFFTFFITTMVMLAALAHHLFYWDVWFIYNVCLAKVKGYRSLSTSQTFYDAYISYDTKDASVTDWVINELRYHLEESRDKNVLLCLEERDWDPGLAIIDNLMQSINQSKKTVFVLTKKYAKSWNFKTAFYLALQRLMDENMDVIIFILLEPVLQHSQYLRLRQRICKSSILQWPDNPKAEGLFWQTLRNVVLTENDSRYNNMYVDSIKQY
As to the kind of experiment: HEK-Blue hTLR8 SEAP reporter gene inhibition assay. Format: cell-based. To be noted: read-out: HEK-Blue hTLR8 IC50. The gist of the method: as §1
On the technique in general: A reporter such as luciferase makes a cellular process visible.

[1] abbreviates: hTLR7 HEK-Blue cells, TLR7 ligand Gardiquimod 10 µM, 20 hours, SEAP by Quanti-blue, class symbols.
[2] abbreviates: hTLR8 HEK-Blue cells, TLR8 ligand 10 µM, 20 hours, SEAP by Quanti-blue, class symbols.

Like-named read-outs stand apart in the source and are kept apart here.

The IC50 is the midpoint of a concentration-inhibition curve.

For `C[C@@H]1CN(c2ccc(C#N)n3ncc(F)c23)Cc2c3c(nn21)CN(CC(=O)N1CCN(C2CC2)CC1)[C@@H](C)C3` [Example I-136, 4-((4R,9S)-8-(2-(4-cyclopropylpiperazin-1-yl)-2-oxoethyl)-4,9-dimethyl-3,4,7,8,9,10-hexahydropyrido[3',4':3,4]pyrazolo[1,5-a]pyrazin-2(1H)-yl)-3-fluoropyrazolo[1,5-a]pyridine-7-carbonitrile], the IC50 is less than 50 nM on human TLR7 (setting [1]) and less than 100 nM on human TLR8 (setting [2]).

Consider `C[C@@H]1CN(c2ccc(C#N)n3ncc(F)c23)Cc2c3c(nn21)CN(Cc1cn[nH]c1)[C@@H](C)C3` [Example I-137, 4-((4R,9S)-8-((1H-pyrazol-4-yl)methyl)-4,9-dimethyl-3,4,7,8,9,10-hexahydropyrido [3',4':3,4]pyrazolo[1,5-a]pyrazin-2(1H)-yl)-3-fluoropyrazolo[1,5-a]pyridine-7-carbonitrile], for which the IC50 at human TLR7 (setting [1]) is less than 50 nM; on human TLR8 (setting [2]), less than 100 nM.

Regarding `C[C@@H]1CN(c2ccc(C#N)n3ncc(F)c23)Cc2c3c(nn21)CN(CC(=O)N1CCC1)[C@@H](C)C3` [Example I-138, 4-((4R,9S)-8-(2-(azetidin-1-yl)-2-oxoethyl)-4,9-dimethyl-3,4,7,8,9,10-hexahydropyrido [3',4':3,4]pyrazolo[1,5-a]pyrazin-2(1H)-yl)-3-fluoropyrazolo[1,5-a]pyridine-7-carbonitrile], the IC50 on human TLR7 is less than 50 nM; on human TLR8, greater than 100 nM.

In the case of `C[C@@H]1CN(c2ccc(C#N)n3ncc(F)c23)Cc2c3c(nn21)CN(CC(=O)N1CCOCC1)[C@@H](C)C3` [Example I-139, 4-((4R,9S)-4,9-dimethyl-8-(2-morpholino-2-oxoethyl)-3,4,7,8,9,10-hexahydropyrido [3',4':3,4]pyrazolo[1,5-a]pyrazin-2(1H)-yl)-3-fluoropyrazolo[1,5-a]pyridine-7-carbonitrile], the IC50 on human TLR7 (setting [1]) is less than 50 nM; on human TLR8 (setting [2]), greater than 100 nM.

Turning to `C[C@@H]1CN(c2ccc(C#N)n3ncc(F)c23)Cc2c3c(nn21)CN(CC(=O)N1CC(F)(F)C1)[C@@H](C)C3` [Example I-140, 4-((4R,9S)-8-(2-(3,3-difluoroazetidin-1-yl)-2-oxoethyl)-4,9-dimethyl-3,4,7,8,9,10-hexahydropyrido[3',4':3,4]pyrazolo[1,5-a]pyrazin-2(1H)-yl)-3-fluoropyrazolo[1,5-a]pyridine-7-carbonitrile], the values for the IC50 at human TLR7 (setting [1]) and at human TLR8 (setting [2]) were less than 50 nM and greater than 100 nM, respectively.

Regarding `C[C@@H]1CN(c2ccc(C#N)c3ncccc23)Cc2c3c(nn21)CN(CC(N)=O)[C@@H](C)C3` [Example I-141, 2-((4R,9S)-2-(8-cyanoquinolin-5-yl)-4,9-dimethyl-1,2,3,4,9,10-hexahydropyrido [3',4':3,4]pyrazolo[1,5-a]pyrazin-8(7H)-yl)acetamide], the IC50 at human TLR7 (setting [1]) was greater than 50 nM; on human TLR8 (setting [2]), greater than 100 nM.

As for `C[C@@H]1CN(c2ccc(C#N)n3ncc(F)c23)Cc2c3c(nn21)CN(C1CCOC1)[C@@H](C)C3` (stereo partly drawn) [Example I-142, 4-((4R,9S)-4,9-dimethyl-8-(tetrahydrofuran-3-yl)-3,4,7,8,9,10-hexahydropyrido [3',4':3,4]pyrazolo[1,5-a]pyrazin-2(1H)-yl)-3-fluoropyrazolo[1,5-a]pyridine-7-carbonitrile], the IC50 is less than 50 nM on human TLR7 (setting [1]) and greater than 100 nM at human TLR8 (setting [2]).

For the compound `C[C@@H]1CN(c2ccc(C#N)n3ncc(F)c23)Cc2c3c(nn21)CN(CC(=O)N1C[C@H](C)N[C@@H](C)C1)[C@@H](C)C3` [Example I-144, 4-((4R,9S)-8-(2-((3S,5S)-3,5-dimethylpiperazin-1-yl)-2-oxoethyl)-4,9-dimethyl-3,4,7,8,9,10-hexahydropyrido[3',4':3,4]pyrazolo[1,5-a]pyrazin-2(1H)-yl)-3-fluoropyrazolo[1,5-a]pyridine-7-carbonitrile], the half-inhibitory concentration (IC50) on human TLR7 (setting [1]) is less than 50 nM; at human TLR8 (setting [2]) it was greater than 100 nM.

For `C[C@@H]1CN(C(=O)CN2Cc3nn4c(c3C[C@@H]2C)CN(c2ccc(C#N)n3ncc(F)c23)C[C@H]4C)C[C@@H](C)N1` [Example I-146, 4-((4R,9S)-8-(2-((3R,5R)-3,5-dimethylpiperazin-1-yl)-2-oxoethyl)-4,9-dimethyl-3,4,7,8,9,10-hexahydropyrido[3',4':3,4]pyrazolo[1,5-a]pyrazin-2(1H)-yl)-3-fluoropyrazolo[1,5-a]pyridine-7-carbonitrile], the figures for the IC50 at human TLR7 (setting [1]) and at human TLR8 (setting [2]) were less than 50 nM and greater than 100 nM, respectively.

In the case of `C[C@@H]1CN(c2ccc(C#N)n3ncc(F)c23)Cc2c3c(nn21)CN(CC(=O)N1CCCC1)[C@@H](C)C3` [Example I-151, 4-((4R,9S)-4,9-dimethyl-8-(2-oxo-2-(pyrrolidin-1-yl)ethyl)-3,4,7,8,9,10-hexahydropyrido[3',4':3,4]pyrazolo[1,5-a]pyrazin-2(1H)-yl)-3-fluoropyrazolo[1,5-a]pyridine-7-carbonitrile], the IC50 at human TLR7 (setting [1]) is less than 50 nM; on human TLR8 (setting [2]), greater than 100 nM.

Consider `C[C@@H]1CN(c2ccc(C#N)n3ncc(F)c23)Cc2c3c(nn21)CN(CC(=O)N1CCC(F)(F)C1)[C@@H](C)C3` [Example I-152, 4-((4R,9S)-8-(2-(3,3-difluoropyrrolidin-1-yl)-2-oxoethyl)-4,9-dimethyl-3,4,7,8,9,10-hexahydropyrido[3',4':3,4]pyrazolo[1,5-a]pyrazin-2(1H)-yl)-3-fluoropyrazolo[1,5-a]pyridine-7-carbonitrile], for which the IC50 was less than 50 nM on human TLR7 (setting [1]) and greater than 100 nM at human TLR8 (setting [2]).

In the case of `C[C@@H]1CN(c2ccc(C#N)n3ncc(F)c23)Cc2c3c(nn21)CN([C@@H]1CCNC1=O)[C@@H](C)C3` [Example I-155, 4-((4R,9S)-4,9-dimethyl-8-((R)-2-oxopyrrolidin-3-yl)-3,4,7,8,9,10-hexahydropyrido[3',4':3,4]pyrazolo[1,5-a]pyrazin-2(1H)-yl)-3-fluoropyrazolo[1,5-a]pyridine-7-carbonitrile], the figures for the IC50 at human TLR7 (setting [1]) and at human TLR8 (setting [2]) were less than 50 nM and greater than 100 nM, respectively.

In the case of `CC(C(N)=O)N1Cc2nn3c(c2C[C@@H]1C)CN(c1ccc(C#N)n2ncc(F)c12)C[C@H]3C` (stereo partly drawn) [Example I-156, 2-((4R,9S)-2-(7-cyano-3-fluoropyrazolo[1,5-a]pyridin-4-yl)-4,9-dimethyl-1,2,3,4,9,10-hexahydropyrido[3',4':3,4]pyrazolo[1,5-a]pyrazin-8(7H)-yl)propanamide], the IC50 at human TLR7 (setting [1]) is greater than 50 nM; at human TLR8 (setting [2]), greater than 100 nM.

(Values after patent publication EP4644396A1 (Visionpharma (Nantong) Co., Ltd, priority 2022, dated 2024).)
